Laboratory results reported in the kinase profiling compilation of Christmann-Franck et al. (2016).

Assays:
Assay in all cases: radiometric filter-binding kinase assay, Kinaseprofiler
SRC (human) = SRC (human) (UniProt P12931); details: ATP 200 µM
STK33 (human) = STK33 (human) (UniProt Q9BYT3); details: ATP 155 µM
RPS6KA3 KD1 KD2 (human) = RPS6KA3 KD1 KD2 (human) (UniProt P51812); details: ATP 10 µM
CDK5 CDK5R1 p35 (human) = CDK5 CDK5R1 p35 (human) (UniProt Q00535+Q15078); details: ATP 15 µM
GRK7 (human) = GRK7 (human) (UniProt Q8WTQ7); details: ATP 15 µM
PIM1 (human) = PIM1 (human) (UniProt P11309); details: ATP 90 µM
HIPK3 (human) = HIPK3 (human) (UniProt Q9H422); details: ATP 15 µM
EPHB4 (human) = EPHB4 (human) (UniProt P54760); details: ATP 10 µM
PLK2 (human) = PLK2 (human) (UniProt Q9NYY3); details: ATP 120 µM
MST1R (human) = MST1R (human) (UniProt Q04912); details: ATP 70 µM
TSSK2 (human) = TSSK2 (human) (UniProt Q96PF2); details: ATP 15 µM
NEK11 (human) = NEK11 (human) (UniProt Q8NG66); details: ATP 200 µM
NTRK1 (human) = NTRK1 (human) (UniProt P04629); details: ATP 120 µM
MUSK (human) = MUSK (human) (UniProt O15146); details: ATP 155 µM
IGF1R (human) = IGF1R (human) (UniProt P08069)
MAPK10 (human) = MAPK10 (human) (UniProt P53779); details: ATP 10 µM
RPS6KA2 KD1 KD2 (human) = RPS6KA2 KD1 KD2 (human) (UniProt Q15349); details: ATP 10 µM
EPHA7 (human) = EPHA7 (human) (UniProt Q15375); details: ATP 90 µM
CAMK2G (human) = CAMK2G (human) (UniProt Q13555); details: ATP 10 µM
FGR (human) = FGR (human) (UniProt P09769); details: ATP 45 µM
PRKCB2 (human) = PRKCB2 (human) (UniProt P05771); details: ATP 10 µM
VRK2 (human) = VRK2 (human) (UniProt Q86Y07); details: ATP 70 µM
[1] = molecular target: JAK3 JH1 catalytic (human) (UniProt P52333); details: ATP 10 µM
PIM2 (human) = PIM2 (human) (UniProt Q9P1W9); details: ATP 15 µM
EPHA2 (human) = EPHA2 (human) (UniProt P29317); details: ATP 155 µM
CSNK1G1 (human) = CSNK1G1 (human) (UniProt Q9HCP0); details: ATP 15 µM
CDK2 CCNA2 (human) = CDK2 CCNA2 (human) (UniProt P24941+P20248); details: ATP 45 µM
CDK1 CCNB1 (human) = CDK1 CCNB1 (human) (UniProt P06493+P14635); details: ATP 45 µM
BMX (human) = BMX (human) (UniProt P51813); details: ATP 45 µM
PKN2 (human) = PKN2 (human) (UniProt Q16513); details: ATP 15 µM
[2] = tested on: RPS6KB1 (human), P23443 [T412E]; details: ATP 15 µM
PRKCQ (human) = PRKCQ (human) (UniProt Q04759); details: ATP 15 µM

Sequence of IGF1R (human) (P08069 whole entry, looked up): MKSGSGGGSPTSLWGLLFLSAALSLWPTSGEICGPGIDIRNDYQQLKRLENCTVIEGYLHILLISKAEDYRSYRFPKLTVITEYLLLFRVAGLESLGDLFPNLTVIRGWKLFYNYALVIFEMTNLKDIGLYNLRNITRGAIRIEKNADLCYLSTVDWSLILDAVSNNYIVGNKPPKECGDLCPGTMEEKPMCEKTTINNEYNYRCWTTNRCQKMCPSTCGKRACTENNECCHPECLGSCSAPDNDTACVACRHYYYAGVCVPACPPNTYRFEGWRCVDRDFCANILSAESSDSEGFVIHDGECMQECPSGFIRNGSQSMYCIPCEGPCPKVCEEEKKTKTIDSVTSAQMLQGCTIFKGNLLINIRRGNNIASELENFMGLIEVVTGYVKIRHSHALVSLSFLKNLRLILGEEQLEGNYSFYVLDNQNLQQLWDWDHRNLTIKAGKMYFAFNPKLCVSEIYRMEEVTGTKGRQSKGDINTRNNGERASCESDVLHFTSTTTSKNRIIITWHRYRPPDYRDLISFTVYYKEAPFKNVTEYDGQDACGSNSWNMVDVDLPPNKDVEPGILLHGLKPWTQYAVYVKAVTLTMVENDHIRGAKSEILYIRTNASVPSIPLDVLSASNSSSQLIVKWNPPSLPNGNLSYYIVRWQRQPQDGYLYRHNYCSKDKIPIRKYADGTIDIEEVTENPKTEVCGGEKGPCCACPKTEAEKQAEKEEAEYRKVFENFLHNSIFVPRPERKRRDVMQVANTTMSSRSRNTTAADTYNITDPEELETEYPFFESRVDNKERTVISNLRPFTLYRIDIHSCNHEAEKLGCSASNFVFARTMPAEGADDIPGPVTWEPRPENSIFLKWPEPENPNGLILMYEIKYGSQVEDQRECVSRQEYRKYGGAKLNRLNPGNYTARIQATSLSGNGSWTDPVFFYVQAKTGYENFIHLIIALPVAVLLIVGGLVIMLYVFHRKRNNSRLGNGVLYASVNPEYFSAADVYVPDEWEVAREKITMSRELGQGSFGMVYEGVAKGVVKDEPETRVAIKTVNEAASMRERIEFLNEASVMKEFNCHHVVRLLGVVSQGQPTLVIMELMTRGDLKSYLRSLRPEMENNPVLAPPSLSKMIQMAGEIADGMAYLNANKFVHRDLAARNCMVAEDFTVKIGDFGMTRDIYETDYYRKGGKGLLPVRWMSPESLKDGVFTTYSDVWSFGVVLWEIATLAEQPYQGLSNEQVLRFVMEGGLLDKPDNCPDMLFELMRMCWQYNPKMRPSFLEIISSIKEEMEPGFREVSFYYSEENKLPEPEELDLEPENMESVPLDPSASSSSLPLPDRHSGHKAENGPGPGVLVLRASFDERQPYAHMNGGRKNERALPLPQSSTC
Sequence of NEK11 (human) (Q8NG66 whole entry, looked up): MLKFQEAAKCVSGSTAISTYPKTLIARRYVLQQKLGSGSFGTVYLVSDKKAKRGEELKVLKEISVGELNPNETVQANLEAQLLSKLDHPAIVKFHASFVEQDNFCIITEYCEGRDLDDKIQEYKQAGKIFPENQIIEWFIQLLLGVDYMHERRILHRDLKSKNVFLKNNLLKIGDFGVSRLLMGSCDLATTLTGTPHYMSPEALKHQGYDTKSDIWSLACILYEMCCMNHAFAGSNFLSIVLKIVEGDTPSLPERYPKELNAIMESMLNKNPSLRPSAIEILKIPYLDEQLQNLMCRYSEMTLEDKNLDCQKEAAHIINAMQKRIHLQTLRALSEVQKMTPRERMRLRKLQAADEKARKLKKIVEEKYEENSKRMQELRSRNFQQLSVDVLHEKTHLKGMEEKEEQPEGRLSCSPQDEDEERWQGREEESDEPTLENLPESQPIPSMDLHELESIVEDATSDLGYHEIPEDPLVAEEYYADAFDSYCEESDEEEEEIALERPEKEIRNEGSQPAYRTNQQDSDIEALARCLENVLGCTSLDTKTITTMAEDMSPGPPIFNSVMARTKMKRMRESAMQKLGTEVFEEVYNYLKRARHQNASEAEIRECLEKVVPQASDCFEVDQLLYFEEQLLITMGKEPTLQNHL
Sequence of CSNK1G1 (human) (Q9HCP0 whole entry, looked up): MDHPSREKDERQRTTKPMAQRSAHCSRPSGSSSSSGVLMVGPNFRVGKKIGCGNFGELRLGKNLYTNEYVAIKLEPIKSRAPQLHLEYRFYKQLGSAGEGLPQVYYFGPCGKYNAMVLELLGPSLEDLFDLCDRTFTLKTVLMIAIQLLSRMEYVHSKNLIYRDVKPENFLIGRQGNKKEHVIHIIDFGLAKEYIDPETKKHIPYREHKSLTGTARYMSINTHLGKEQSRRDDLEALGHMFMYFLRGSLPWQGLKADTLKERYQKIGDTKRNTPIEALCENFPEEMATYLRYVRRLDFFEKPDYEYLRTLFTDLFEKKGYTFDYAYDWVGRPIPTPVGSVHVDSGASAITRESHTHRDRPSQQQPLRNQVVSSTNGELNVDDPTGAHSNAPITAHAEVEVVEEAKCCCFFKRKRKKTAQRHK
Sequence of PIM1 (human) (P11309 whole entry, looked up): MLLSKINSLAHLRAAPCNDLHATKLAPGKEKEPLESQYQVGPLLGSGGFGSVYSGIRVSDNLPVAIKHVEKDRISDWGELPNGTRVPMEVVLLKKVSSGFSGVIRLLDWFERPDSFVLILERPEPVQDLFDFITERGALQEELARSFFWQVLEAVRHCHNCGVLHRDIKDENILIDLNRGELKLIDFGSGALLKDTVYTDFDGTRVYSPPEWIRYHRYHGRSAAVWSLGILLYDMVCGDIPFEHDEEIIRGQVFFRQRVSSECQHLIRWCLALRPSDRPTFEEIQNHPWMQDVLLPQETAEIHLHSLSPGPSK
Sequence of SRC (human) (P12931 whole entry, looked up): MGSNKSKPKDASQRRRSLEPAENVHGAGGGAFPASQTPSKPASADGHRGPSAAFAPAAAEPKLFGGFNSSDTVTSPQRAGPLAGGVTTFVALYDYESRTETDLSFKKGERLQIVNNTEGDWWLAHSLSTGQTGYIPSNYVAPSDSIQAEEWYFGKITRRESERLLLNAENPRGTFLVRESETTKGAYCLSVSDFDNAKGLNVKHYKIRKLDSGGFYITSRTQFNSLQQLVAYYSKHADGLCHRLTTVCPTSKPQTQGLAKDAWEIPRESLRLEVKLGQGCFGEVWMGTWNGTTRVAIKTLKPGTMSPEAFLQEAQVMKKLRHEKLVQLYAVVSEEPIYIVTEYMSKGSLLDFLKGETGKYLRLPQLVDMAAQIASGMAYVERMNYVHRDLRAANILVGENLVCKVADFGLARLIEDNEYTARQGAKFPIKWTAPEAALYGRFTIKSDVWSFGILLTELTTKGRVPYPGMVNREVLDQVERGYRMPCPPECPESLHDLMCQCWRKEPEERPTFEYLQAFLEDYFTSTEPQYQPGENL
Sequence of STK33 (human) (Q9BYT3 whole entry, looked up): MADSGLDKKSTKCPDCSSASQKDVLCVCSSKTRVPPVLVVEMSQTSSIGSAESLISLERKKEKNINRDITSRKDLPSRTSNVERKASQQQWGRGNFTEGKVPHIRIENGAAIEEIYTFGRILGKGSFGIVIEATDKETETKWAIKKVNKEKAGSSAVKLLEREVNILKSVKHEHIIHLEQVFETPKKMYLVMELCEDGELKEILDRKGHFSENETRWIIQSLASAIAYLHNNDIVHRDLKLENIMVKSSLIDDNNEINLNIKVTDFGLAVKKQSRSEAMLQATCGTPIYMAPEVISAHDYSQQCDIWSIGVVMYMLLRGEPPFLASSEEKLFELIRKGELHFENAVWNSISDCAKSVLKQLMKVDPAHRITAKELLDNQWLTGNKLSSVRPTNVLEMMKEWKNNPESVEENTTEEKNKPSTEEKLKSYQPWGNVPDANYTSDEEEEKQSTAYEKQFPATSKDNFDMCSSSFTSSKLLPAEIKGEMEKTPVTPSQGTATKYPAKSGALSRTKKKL
Sequence of CDK1 CCNB1 (human) (P06493 whole entry, looked up): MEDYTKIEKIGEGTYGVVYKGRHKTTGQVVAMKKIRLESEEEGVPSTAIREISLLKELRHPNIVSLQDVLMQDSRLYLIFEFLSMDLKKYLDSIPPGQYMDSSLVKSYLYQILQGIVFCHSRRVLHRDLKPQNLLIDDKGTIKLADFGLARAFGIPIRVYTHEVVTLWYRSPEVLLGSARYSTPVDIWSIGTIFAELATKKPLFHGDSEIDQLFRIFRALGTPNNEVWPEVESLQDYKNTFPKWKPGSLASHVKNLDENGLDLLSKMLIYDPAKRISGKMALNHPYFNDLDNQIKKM
Sequence of CDK1 CCNB1 (human) (P14635 whole entry, looked up): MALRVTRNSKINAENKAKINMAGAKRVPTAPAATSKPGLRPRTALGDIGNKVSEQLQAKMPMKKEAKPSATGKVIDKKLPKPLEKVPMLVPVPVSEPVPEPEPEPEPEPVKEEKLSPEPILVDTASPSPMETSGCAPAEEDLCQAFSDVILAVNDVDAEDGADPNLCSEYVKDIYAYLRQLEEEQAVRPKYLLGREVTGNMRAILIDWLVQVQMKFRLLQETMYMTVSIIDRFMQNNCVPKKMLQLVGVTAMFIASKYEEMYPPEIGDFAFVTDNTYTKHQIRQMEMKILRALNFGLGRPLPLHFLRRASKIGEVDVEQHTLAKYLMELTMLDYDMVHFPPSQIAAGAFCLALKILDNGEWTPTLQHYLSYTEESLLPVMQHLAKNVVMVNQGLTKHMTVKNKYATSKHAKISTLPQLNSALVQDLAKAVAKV
Sequence of MAPK10 (human) (P53779 whole entry, looked up): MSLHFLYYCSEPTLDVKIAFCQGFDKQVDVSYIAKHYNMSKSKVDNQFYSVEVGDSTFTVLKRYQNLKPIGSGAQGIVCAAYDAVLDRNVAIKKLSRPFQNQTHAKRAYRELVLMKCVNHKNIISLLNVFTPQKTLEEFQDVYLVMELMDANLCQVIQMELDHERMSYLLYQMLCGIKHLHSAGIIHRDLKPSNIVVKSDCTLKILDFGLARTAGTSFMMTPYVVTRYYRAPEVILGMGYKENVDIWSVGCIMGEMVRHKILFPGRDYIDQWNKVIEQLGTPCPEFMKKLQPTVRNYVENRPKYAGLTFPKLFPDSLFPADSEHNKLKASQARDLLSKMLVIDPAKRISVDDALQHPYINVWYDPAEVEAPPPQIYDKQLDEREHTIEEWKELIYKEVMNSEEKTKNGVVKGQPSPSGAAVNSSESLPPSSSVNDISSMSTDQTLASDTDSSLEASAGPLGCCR

Q: With O=C1Nc2ccccc2/C1=C1\Nc2ccccc2\C1=N/O as the compound, how does the residual activity (SRC (human); compound 1.0 µM) read?
A: Its residual activity is 35%.

Q: What about the residual activity (SRC (human); compound 10.0 µM) of the same compound?
A: The residual activity was 5%.

Q: And the residual activity (STK33 (human); compound 1.0 µM)?
A: The residual activity was 43%.

Q: And the residual activity (STK33 (human); compound 10.0 µM)?
A: Its residual activity is 8%.

Q: What about the residual activity (RPS6KA3 KD1 KD2 (human); compound 1.0 µM) of the same compound?
A: The residual activity was 50%.

Q: What about the residual activity (RPS6KA3 KD1 KD2 (human); compound 10.0 µM) of the same compound?
A: The residual activity was 7%.

Q: And the residual activity (CDK5 CDK5R1 p35 (human); compound 1.0 µM)?
A: Its residual activity is 5%.

Q: And the residual activity (CDK5 CDK5R1 p35 (human); compound 10.0 µM)?
A: The residual activity was 1%.

Q: And the residual activity (GRK7 (human); compound 1.0 µM)?
A: The residual activity was 73%.

Q: And the residual activity (GRK7 (human); compound 10.0 µM)?
A: The residual activity was 18%.

Q: And the residual activity (PIM1 (human); compound 1.0 µM)?
A: The residual activity was 76%.

Q: And the residual activity (PIM1 (human); compound 10.0 µM)?
A: Its residual activity is 47%.

Q: And the residual activity (HIPK3 (human); compound 1.0 µM)?
A: The residual activity was 88%.

Q: What about the residual activity (HIPK3 (human); compound 10.0 µM) of the same compound?
A: Its residual activity is 19%.

Q: And the residual activity (EPHB4 (human); compound 1.0 µM)?
A: Its residual activity is 67%.

Q: And the residual activity (EPHB4 (human); compound 10.0 µM)?
A: Its residual activity is 13%.

Q: What about the residual activity (PLK2 (human); compound 1.0 µM) of the same compound?
A: Its residual activity is 97%.

Q: What about the residual activity (PLK2 (human); compound 10.0 µM) of the same compound?
A: The residual activity was 82%.

Q: And the residual activity (MST1R (human); compound 1.0 µM)?
A: Its residual activity is 86%.

Q: And the residual activity (MST1R (human); compound 10.0 µM)?
A: The residual activity was 71%.

Q: What about the residual activity (TSSK2 (human); compound 1.0 µM) of the same compound?
A: Its residual activity is 95%.

Q: What about the residual activity (TSSK2 (human); compound 10.0 µM) of the same compound?
A: Its residual activity is 78%.

Q: And the residual activity (NEK11 (human); compound 1.0 µM)?
A: Its residual activity is 70%.

Q: What about the residual activity (NEK11 (human); compound 10.0 µM) of the same compound?
A: Its residual activity is 18%.

Q: And the residual activity (NTRK1 (human); compound 1.0 µM)?
A: The residual activity was 0%.

Q: And the residual activity (NTRK1 (human); compound 10.0 µM)?
A: The residual activity was 0%.

Q: What about the residual activity (MUSK (human); compound 1.0 µM) of the same compound?
A: The residual activity was 58%.

Q: What about the residual activity (MUSK (human); compound 10.0 µM) of the same compound?
A: Its residual activity is 5%.

Q: What about the residual activity (IGF1R (human); compound 1.0 µM, ATP 45 µM) of the same compound?
A: Its residual activity is 40%.

Q: And the residual activity (IGF1R (human); compound 1.0 µM, ATP 200 µM)?
A: Its residual activity is 37%.

Q: And the residual activity (IGF1R (human); compound 10.0 µM, ATP 45 µM)?
A: The residual activity was 20%.

Q: And the residual activity (IGF1R (human); compound 10.0 µM, ATP 200 µM)?
A: Its residual activity is 26%.

Q: What about the residual activity (MAPK10 (human); compound 1.0 µM) of the same compound?
A: The residual activity was 7%.

Q: And the residual activity (MAPK10 (human); compound 10.0 µM)?
A: The residual activity was -2%.

Q: What about the residual activity (RPS6KA2 KD1 KD2 (human); compound 1.0 µM) of the same compound?
A: The residual activity was 19%.

Q: What about the residual activity (RPS6KA2 KD1 KD2 (human); compound 10.0 µM) of the same compound?
A: The residual activity was 4%.

Q: What about the residual activity (EPHA7 (human); compound 1.0 µM) of the same compound?
A: The residual activity was 70%.

Q: And the residual activity (EPHA7 (human); compound 10.0 µM)?
A: Its residual activity is 15%.

Q: What about the residual activity (CAMK2G (human); compound 1.0 µM) of the same compound?
A: Its residual activity is 12%.

Q: What about the residual activity (CAMK2G (human); compound 10.0 µM) of the same compound?
A: The residual activity was 1%.

Q: What about the residual activity (FGR (human); compound 1.0 µM) of the same compound?
A: Its residual activity is 8%.

Q: What about the residual activity (FGR (human); compound 10.0 µM) of the same compound?
A: The residual activity was 1%.

Q: And the residual activity (PRKCB2 (human); compound 1.0 µM)?
A: The residual activity was 95%.

Q: What about the residual activity (PRKCB2 (human); compound 10.0 µM) of the same compound?
A: Its residual activity is 102%.

Q: And the residual activity (VRK2 (human); compound 1.0 µM)?
A: Its residual activity is 71%.

Q: What about the residual activity (VRK2 (human); compound 10.0 µM) of the same compound?
A: The residual activity was 28%.

Q: And the residual activity ([1]; compound 1.0 µM)?
A: The residual activity was 21%.

Q: What about the residual activity ([1]; compound 10.0 µM) of the same compound?
A: The residual activity was 2%.

Q: And the residual activity (PIM2 (human); compound 1.0 µM)?
A: Its residual activity is 68%.

Q: And the residual activity (PIM2 (human); compound 10.0 µM)?
A: The residual activity was 38%.

Q: And the residual activity (EPHA2 (human); compound 1.0 µM)?
A: The residual activity was 61%.

Q: And the residual activity (EPHA2 (human); compound 10.0 µM)?
A: The residual activity was 16%.

Q: What about the residual activity (CSNK1G1 (human); compound 1.0 µM) of the same compound?
A: The residual activity was 57%.

Q: And the residual activity (CSNK1G1 (human); compound 10.0 µM)?
A: The residual activity was 19%.

Q: What about the residual activity (CDK2 CCNA2 (human); compound 1.0 µM) of the same compound?
A: The residual activity was 19%.

Q: What about the residual activity (CDK2 CCNA2 (human); compound 10.0 µM) of the same compound?
A: The residual activity was 5%.

Q: And the residual activity (CDK1 CCNB1 (human); compound 1.0 µM)?
A: Its residual activity is 35%.

Q: What about the residual activity (CDK1 CCNB1 (human); compound 10.0 µM) of the same compound?
A: The residual activity was 19%.

Q: What about the residual activity (BMX (human); compound 1.0 µM) of the same compound?
A: The residual activity was 21%.

Q: And the residual activity (BMX (human); compound 10.0 µM)?
A: The residual activity was 4%.

Q: What about the residual activity (PKN2 (human); compound 1.0 µM) of the same compound?
A: The residual activity was 91%.

Q: What about the residual activity (PKN2 (human); compound 10.0 µM) of the same compound?
A: The residual activity was 48%.

Q: And the residual activity ([2]; compound 1.0 µM)?
A: Its residual activity is 37%.

Q: What about the residual activity ([2]; compound 10.0 µM) of the same compound?
A: The residual activity was 13%.

Q: And the residual activity (PRKCQ (human); compound 1.0 µM)?
A: Its residual activity is 81%.

Q: What about the residual activity (PRKCQ (human); compound 10.0 µM) of the same compound?
A: Its residual activity is 55%.
